# Tested on: S. aureus ATCC 6538
# Test: Quantitative modified AOAC Use Dilution Test, log reduction on stainless steel penicylinders
# Format: cell-based
# Details: 5% Fetal bovine serum soil load, contact time 10 min., 10% of the product
# Excerpt: Tests were done using the aforementioned modified version of the AOAC Use Dilution Test, to quantify the number of viable bacteria remaining on the stainless steel penicylinders. […] Starting populations are listed in parentheses.
compound,measurement,setting,value
"[Na+].[OH-] [13% NaOH, sodium hydroxide]",Average Log Reduction,40° C.,2.69
same,Average Log Reduction,60° C.,7.00
same,Average Log Reduction,RT,1.76
